Laboratory results as given in ChEMBL document CHEMBL1138944, “3-Substituted gem-cyclohexane sulfone based gamma-secretase inhibitors for Alzheimer's disease: conformational analysis and biological activity” (Bioorg Med Chem Lett, 2006).

Biological target: Gamma-secretase
Assay: Inhibition of gamma secretase expressed in SH-SY5Y cells
Format: cell-based, Homo sapiens

| Compound | IC50 [nM] |
| --- | --- |
| C=CC[C@H]1CCC[C@](c2cc(F)ccc2F)(S(=O)(=O)c2ccc(Cl)cc2)C1 | 85 |
| COC(=O)CCC[C@@]1(C)CCC[C@](c2cc(F)ccc2F)(S(=O)(=O)c2ccc(Cl)cc2)C1 (relative stereo) | 1630 |
| O=C[C@H]1CCC[C@](c2cc(F)ccc2F)(S(=O)(=O)c2ccc(Cl)cc2)C1 (relative stereo) | 55 |
| COC(=O)/C=C/C[C@@H]1CCC[C@](c2cc(F)ccc2F)(S(=O)(=O)c2ccc(Cl)cc2)C1 (relative stereo) | 10 |
| O=C[C@@H]1CCC[C@](c2cc(F)ccc2F)(S(=O)(=O)c2ccc(Cl)cc2)C1 (relative stereo) | 77 |
| COC(=O)/C=C/C[C@H]1CCC[C@](c2cc(F)ccc2F)(S(=O)(=O)c2ccc(Cl)cc2)C1 (relative stereo) | 210 |
| C=CC[C@@H]1CCC[C@](c2cc(F)ccc2F)(S(=O)(=O)c2ccc(Cl)cc2)C1 (relative stereo) | 44 |

The next lines start with the values.

| IC50 [nM] | Compound |
| --- | --- |
| 8 | O=S(=O)(c1ccc(Cl)cc1)[C@@]1(c2cc(F)ccc2F)CCC[C@@H](CCCO)C1 (relative stereo) |
| 3 | COC(=O)CCC[C@@H]1CCC[C@](c2cc(F)ccc2F)(S(=O)(=O)c2ccc(Cl)cc2)C1 (relative stereo) |
| 10 | COC(=O)CCC[C@]1(C)CCC[C@](c2cc(F)ccc2F)(S(=O)(=O)c2ccc(Cl)cc2)C1 (relative stereo) |
| 112 | O=S(=O)(c1ccc(Cl)cc1)[C@@]1(c2cc(F)ccc2F)CCC[C@H](CCCO)C1 (relative stereo) |
| 24 | O=C(O)CC[C@@H]1CCC[C@](c2cc(F)ccc2F)(S(=O)(=O)c2ccc(Cl)cc2)C1 (relative stereo) |
| 376 | COC(=O)CCC[C@H]1CCC[C@](c2cc(F)ccc2F)(S(=O)(=O)c2ccc(Cl)cc2)C1 (relative stereo) |
| 380 | O=C(O)CC[C@H]1CCC[C@](c2cc(F)ccc2F)(S(=O)(=O)c2ccc(Cl)cc2)C1 (relative stereo) |
